Data as given in US20210130826A1, “METHODS OF MODULATING ANTISENSE ACTIVITY” (IONIS PHARMACEUTICALS, INC., priority 2018, published 2021).

Test system: Malat-1
Experiment: Malat-1 RNA by RT-qPCR in MHT cells; autophagy modulator, then oligonucleotide by free uptake
Type: cell-based, mouse
Description: MHT cells (a mouse hepatocellular carcinoma cell line) were plated at 20,000 cells/well and treated with DMSO (control) or an autophagy modulator for 24 hours at the concentrations indicated in Table 2 below. 3-MA, BafA1, AZD8055, and leupeptin are […]. […] Fourteen hours after the addition of autophagy modulators, 10 μM of a modified control oligonucleotide or of a modified antisense oligonucleotide was added by free uptake for ten hours. The modified oligonucleotides, shown in Table 1 below, are 3-10-3 cEt gapmers in which every internucleoside linkage is a phosphorothioate internucleoside linkage. The three 5′-terminal nucleosides and the three 3′-terminal nucleosides of each oligonucleotide each comprise a cEt modified sugar moiety. The remaining ten nucleosides of each oligonucleotide each comprise an unmodified, 2′-deoxy sugar moiety.
Using the primer probe sets described in Table 3 below, RT-qPCR analysis was performed to detect RNA levels of Malat-1, shown in Table 4 and markers of autophagy, (Rab7, LAMP2, Atg7, ULK1, ULK2, Atg5, Beclin, and c-Jun), shown in Table 5. Results were normalized to cyclophilin A levels. To control for global effects of autophagy modulators on gene expression, Malat-1 RNA levels after treatment with an antisense oligonucleotide and an autophagy modulator were normalized to Malat-1 RNA levels in cells treated with control Compound No. 549148 and the same autophagy modulator.
MHT cells were plated at 20,000 cells/well and treated with DMSO (control) or an autophagy modulator for 24 hours, at the concentrations indicated Table 7 below. Fourteen hours after the addition of autophagy modulator, control or antisense oligonucleotides (see Table 6) were added at 1 μM, 2.5 μM, 5 μM, or 10 μM by free uptake for ten hours. The modified oligonucleotides, shown in Table 6 below, are 5-10-5 MOE gapmers in which every internucleoside linkage is a phosphorothioate internucleoside linkage. The five 5′-terminal nucleosides and the five 3′-terminal nucleosides of each oligonucleotide each comprise a 2′-MOE modified sugar moiety. The remaining ten nucleosides of each oligonucleotide each comprise an unmodified, 2′-deoxy sugar moiety.
RT-qPCR analysis was performed to detect RNA levels of Malat-1 using primer probe set 15877 (described in Example 1). In order to control for global effects of autophagy modulators on gene expression, Malat-1 RNA levels after treatment with an antisense oligonucleotide and an autophagy modulator were normalized to Malat-1 RNA levels in cells treated with control Compound No. 141923 and the same autophagy modulator. Each table below represents results from an individual assay.

COc1ccc(-c2ccc3c(N4CCOC[C@@H]4C)nc(N4CCOC[C@@H]4C)nc3n2)cc1CO [AZD8055]
effect of autophagy modulator on modified oligonucleotide activity (in words) (MOE gapmer 399462, relative to DMSO): significantly enhanced modified oligonucleotide activity | effect of autophagy modulator on antisense activity (in words) (cEt gapmer 556089, relative to DMSO): significantly enhanced antisense activity
